Earlier results as cited in patent publication US6747011B1, “Antitumor drugs and methods” (A.P. Group, Inc., priority 2003, dated 2004).

Details: alkaline and physiological conditions

In the case of `COC[C@@H](C[C@H]1O[C@@](O)([C@H](O)[C@@H]2C[C@H](OC)[C@@H](O)CC/C=C(C)/C=C/[C@@H](O[C@@H]3O[C@@H](C)[C@H](OC)[C@@H](O)[C@@H]3O)[C@H](C)/C=C(C)/C=C(C)/C=C(\C)C(=O)O2)[C@H](C)[C@@H](O)[C@H]1C)OC1C[C@](C)(O)[C@@H](O[C@H]2C[C@@H](OC)[C@H](O)[C@@H](C)O2)[C@H](C)O1` (stereo partly shown) [Apoptolidin], the “stability, isomerization to isoapoptolidin” value is listed as “unstable under alkaline and physiological conditions and readily isomerizes to isoapoptolidin”.
